Experimental data: PubChem BioAssay (NCI)
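1) Cells in 96-well plates. 2) Compound, 48 h, 5 concentrations. 3) Linear interpolation between surrounding doses. 4) Unreached endpoint = highest concentration. Here, GI50 denotes the concentration required for 50% inhibition of growth. TGI marks complete inhibition of growth.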

Key:
Assay in all cases: DTP human tumour cell line panel, 48 h
OVCAR-4 ovarian = tested on: OVCAR-4 ovarian
EKVX NSCLC = tested on: EKVX NSCLC
SNB-75 CNS = tested on: SNB-75 CNS
HL-60(TB) leukemia = tested on: HL-60(TB) leukemia
M14 melanoma = tested on: M14 melanoma
MALME-3M melanoma = tested on: MALME-3M melanoma
ACHN renal = tested on: ACHN renal
DU-145 prostate = tested on: DU-145 prostate
UACC-62 melanoma = tested on: UACC-62 melanoma
COLO 205 colon = tested on: COLO 205 colon
SK-MEL-28 melanoma = tested on: SK-MEL-28 melanoma
KM12 colon = tested on: KM12 colon
786-0 renal = tested on: 786-0 renal
RPMI-8226 leukemia = tested on: RPMI-8226 leukemia
SF-539 CNS = tested on: SF-539 CNS
SK-MEL-2 melanoma = tested on: SK-MEL-2 melanoma
HCT-15 colon = tested on: HCT-15 colon
SW-620 colon = tested on: SW-620 colon
LOX IMVI melanoma = tested on: LOX IMVI melanoma
SN12C renal = tested on: SN12C renal
U251 CNS = tested on: U251 CNS
K-562 leukemia = tested on: K-562 leukemia
MCF7 breast = tested on: MCF7 breast
OVCAR-8 ovarian = tested on: OVCAR-8 ovarian
HCC-2998 colon = tested on: HCC-2998 colon
A498 renal = tested on: A498 renal
HOP-92 NSCLC = tested on: HOP-92 NSCLC
UO-31 renal = tested on: UO-31 renal
HS 578T breast = tested on: HS 578T breast
HCT-116 colon = tested on: HCT-116 colon
SR leukemia = tested on: SR leukemia
SF-295 CNS = tested on: SF-295 CNS
A549 NSCLC = tested on: A549 NSCLC
T-47D breast = tested on: T-47D breast
HOP-62 NSCLC = tested on: HOP-62 NSCLC
NCI/ADR-RES ovarian = tested on: NCI/ADR-RES ovarian
NCI-H23 lung = tested on: NCI-H23 lung
SF-268 CNS = tested on: SF-268 CNS
NCI-H460 lung = tested on: NCI-H460 lung
IGROV1 ovarian = tested on: IGROV1 ovarian
PC-3 prostate = tested on: PC-3 prostate
RXF 393 renal = tested on: RXF 393 renal
MDA-MB-435 = tested on: MDA-MB-435
SK-MEL-5 melanoma = tested on: SK-MEL-5 melanoma
MOLT-4 leukemia = tested on: MOLT-4 leukemia
OVCAR-3 ovarian = tested on: OVCAR-3 ovarian
SK-OV-3 ovarian = tested on: SK-OV-3 ovarian
SNB-19 CNS = tested on: SNB-19 CNS
BT-549 breast = tested on: BT-549 breast
TK-10 renal = tested on: TK-10 renal
HT29 colon = tested on: HT29 colon
NCI-H522 lung = tested on: NCI-H522 lung
CCRF-CEM leukemia = tested on: CCRF-CEM leukemia
OVCAR-5 ovarian = tested on: OVCAR-5 ovarian
CAKI-1 renal = tested on: CAKI-1 renal
NCI-H226 lung = tested on: NCI-H226 lung
MDA-MB-231 breast = tested on: MDA-MB-231 breast
UACC-257 melanoma = tested on: UACC-257 melanoma

## CCOC(=O)c1c(C)nc2c(c1N)/C(=C/c1ccc(OC)cc1)C(=O)N2Cc1ccc(F)cc1
OVCAR-4 ovarian
  GI50: 0.392 µM
  TGI: 6.25 µM
EKVX NSCLC
  GI50: 0.27 µM
  TGI: 2.26 µM
SNB-75 CNS
  GI50: 1.03 µM
  TGI: 4.83 µM
HL-60(TB) leukemia
  GI50: 0.14 µM
  TGI: 0.474 µM
M14 melanoma
  GI50: 0.191 µM
  TGI: 0.443 µM
MALME-3M melanoma
  GI50: 0.185 µM
  TGI: 0.44 µM
ACHN renal
  GI50: 0.137 µM
  TGI: 0.529 µM
DU-145 prostate
  GI50: 0.279 µM
  TGI: 1.12 µM
UACC-62 melanoma
  GI50: 0.16 µM
  TGI: 0.317 µM
COLO 205 colon
  GI50: 0.146 µM
  TGI: 0.333 µM
SK-MEL-28 melanoma
  GI50: 0.183 µM
  TGI: 0.374 µM
KM12 colon
  GI50: 0.243 µM
  TGI: 0.844 µM
786-0 renal
  GI50: 0.165 µM
  TGI: 0.389 µM
RPMI-8226 leukemia
  GI50: 0.224 µM
  TGI: 0.653 µM
SF-539 CNS
  GI50: 0.189 µM
  TGI: 0.457 µM
SK-MEL-2 melanoma
  GI50: 0.238 µM
  TGI: 0.729 µM
HCT-15 colon
  GI50: 0.127 µM
  TGI: 0.543 µM
SW-620 colon
  GI50: 0.14 µM
  TGI: 0.349 µM
LOX IMVI melanoma
  GI50: 0.164 µM
  TGI: 0.34 µM
SN12C renal
  GI50: 0.244 µM
  TGI: 0.75 µM
U251 CNS
  GI50: 0.197 µM
  TGI: 0.508 µM
K-562 leukemia
  GI50: 0.207 µM
  TGI: 1.01 µM
MCF7 breast
  GI50: 0.195 µM
  TGI: 1.51 µM
OVCAR-8 ovarian
  GI50: 0.257 µM
  TGI: 1.06 µM
HCC-2998 colon
  GI50: 0.255 µM
  TGI: 0.762 µM
A498 renal
  GI50: 0.535 µM
  TGI: 2.6 µM
HOP-92 NSCLC
  GI50: 0.263 µM
  TGI: 0.859 µM
UO-31 renal
  GI50: 0.132 µM
  TGI: 0.301 µM
HS 578T breast
  GI50: 0.479 µM
  TGI: > 100 µM
HCT-116 colon
  GI50: 0.134 µM
  TGI: 0.36 µM
SR leukemia
  GI50: 0.0816 µM
  TGI: 0.726 µM
SF-295 CNS
  GI50: 1.37 µM
  TGI: 3.59 µM
A549 NSCLC
  GI50: 0.385 µM
  TGI: 2.39 µM
T-47D breast
  GI50: 0.148 µM
  TGI: 1.91 µM
HOP-62 NSCLC
  GI50: 0.497 µM
  TGI: 2.17 µM
NCI/ADR-RES ovarian
  GI50: 0.299 µM
NCI-H23 lung
  GI50: 0.262 µM
  TGI: 1.03 µM
SF-268 CNS
  GI50: 0.285 µM
  TGI: 1.21 µM
NCI-H460 lung
  GI50: 0.257 µM
  TGI: 0.744 µM
IGROV1 ovarian
  GI50: 0.235 µM
  TGI: 0.733 µM
PC-3 prostate
  GI50: 0.277 µM
  TGI: 1 µM
RXF 393 renal
  GI50: 0.14 µM
  TGI: 0.329 µM
MDA-MB-435
  GI50: 0.201 µM
  TGI: 0.469 µM
SK-MEL-5 melanoma
  GI50: 0.333 µM
  TGI: 1.48 µM
MOLT-4 leukemia
  GI50: 0.221 µM
  TGI: 0.745 µM
OVCAR-3 ovarian
  GI50: 0.109 µM
  TGI: 0.51 µM
SK-OV-3 ovarian
  GI50: 0.692 µM
  TGI: 6.85 µM
SNB-19 CNS
  GI50: 0.532 µM
  TGI: 1.87 µM
BT-549 breast
  GI50: 0.169 µM
  TGI: 0.365 µM
TK-10 renal
  GI50: 0.264 µM
  TGI: 1 µM
HT29 colon
  GI50: 0.171 µM
  TGI: 0.587 µM
NCI-H522 lung
  GI50: 0.125 µM
  TGI: 0.296 µM
CCRF-CEM leukemia
  GI50: 0.109 µM
  TGI: 0.514 µM
OVCAR-5 ovarian
  GI50: 0.246 µM
  TGI: 0.561 µM
CAKI-1 renal
  GI50: 0.25 µM
  TGI: 1.31 µM
NCI-H226 lung
  GI50: 0.261 µM
  TGI: 1.03 µM
MDA-MB-231 breast
  GI50: 0.236 µM
  TGI: 0.76 µM

## Cc1ccc2c(c1)C1(C)OC(C=CC1=O)O2 (stereo unspecified)
OVCAR-4 ovarian
  TGI: 2.29 µM
EKVX NSCLC
  TGI: 7.69 µM
SNB-75 CNS
  TGI: 4.35 µM
HL-60(TB) leukemia
  TGI: 0.998 µM
M14 melanoma
  TGI: 1.13 µM
MALME-3M melanoma
  TGI: 1.32 µM
ACHN renal
  TGI: 1.73 µM
DU-145 prostate
  TGI: 8.45 µM
UACC-62 melanoma
  TGI: 3.6 µM
COLO 205 colon
  TGI: 1.43 µM
UACC-257 melanoma
  TGI: 3.45 µM
SK-MEL-28 melanoma
  TGI: 2.03 µM
KM12 colon
  TGI: 2.14 µM
786-0 renal
  TGI: 0.822 µM
RPMI-8226 leukemia
  TGI: 1.65 µM
SF-539 CNS
  TGI: 1.27 µM
SK-MEL-2 melanoma
  TGI: 5.85 µM
HCT-15 colon
  TGI: 0.772 µM
SW-620 colon
  TGI: 1.05 µM
LOX IMVI melanoma
  TGI: 1.31 µM
SN12C renal
  TGI: 0.862 µM
U251 CNS
  TGI: 0.549 µM
K-562 leukemia
  TGI: 0.902 µM
MCF7 breast
  TGI: 6.09 µM
OVCAR-8 ovarian
  TGI: 0.803 µM
HCC-2998 colon
  TGI: 8.15 µM
A498 renal
  TGI: 13.4 µM
HOP-92 NSCLC
  TGI: 1.48 µM
UO-31 renal
  TGI: 2.36 µM
HS 578T breast
  TGI: > 26.6 µM
HCT-116 colon
  TGI: 0.652 µM
SR leukemia
  TGI: 1.09 µM
SF-295 CNS
  TGI: 11.9 µM
A549 NSCLC
  TGI: 10.1 µM
T-47D breast
  TGI: 1.65 µM
HOP-62 NSCLC
  TGI: 12.2 µM
NCI/ADR-RES ovarian
  TGI: 0.0653 µM
NCI-H23 lung
  TGI: 2.38 µM
SF-268 CNS
  TGI: 10.3 µM
NCI-H460 lung
  TGI: 6.03 µM
IGROV1 ovarian
  TGI: 8.88 µM
PC-3 prostate
  TGI: 3.81 µM
RXF 393 renal
  TGI: 1.56 µM
MDA-MB-435
  TGI: 0.317 µM
SK-MEL-5 melanoma
  TGI: 2.79 µM
MOLT-4 leukemia
  TGI: 0.862 µM
OVCAR-3 ovarian
  TGI: 1.16 µM
SK-OV-3 ovarian
  TGI: 12 µM
SNB-19 CNS
  TGI: 8.97 µM
BT-549 breast
  TGI: 1.57 µM
TK-10 renal
  TGI: 5.5 µM
HT29 colon
  TGI: 0.684 µM
NCI-H522 lung
  TGI: 0.239 µM
CCRF-CEM leukemia
  TGI: 0.569 µM
OVCAR-5 ovarian
  TGI: 4.46 µM
CAKI-1 renal
  TGI: 1.49 µM
NCI-H226 lung
  TGI: 7.94 µM
MDA-MB-231 breast
  TGI: 0.745 µM
